Reference: patent US10308617B2, “Triazole benzamide derivatives and the compositions and methods of treatment regarding the same” (An2H Discovery Limited, priority 2016, dated 2019)
Where two headings read alike, the source gives them in different places.

Tests used:
[1] = Microsomal Stability Assay, rat liver microsomes; type: in vitro ADME; conditions: for half-life at 1 μM: rat, liver microsomes, pH 7.4, 1 μM compound, 1.0 mg/mL microsome, NADPH, read-out: RLM t1/2
Experimental: Compounds were also tested for metabolic stability in both rat liver microsomes (RLM) and human liver microsomes (HLM) and their half-life calculated (See Table 5). The assay was performed as follows. The total volume for each incubation was 250 μL. A 100 μM DMSO solution of compound (diluted from 10 mM stock solution) was spiked into 50 mM KH2PO4 (pH 7.4) buffer containing liver microsome at a concentration of 1.0 mg/mL. The reaction was initiated by the addition of 50 μL of 1 mM NADPH. The final concentration of each compound was 1 μM (1% DMSO). The positive controls, phenacetin for CYP1A2, diclofenac for CYP2C9, omeprazole for CYP2C19, dextromethorphan for CYP2D6 and midazolam for CYP3A4 were added to a separate tube with the final substrate concentrations of 1 μM (1% DMSO) for evaluating the enzyme activities in the liver microsomes. At 0, 15, 30 and 60 min, an aliquot of 15 μL reaction mixtures were removed and 200 μL of methanol (with internal standard of 25 ng/mL propranolol) was added to quench the reaction. The resulting mixture was centrifuged and supernatant was used for LC-MS/MS analysis.
The signals for each compound, or the metabolites for the probe substrates and the internal standard were integrated and the peak area ratios to internal standard were generated. Percent parent remaining at a specified timepoint was calculated based on the peak area ratios at time 0 (as 100%) for in vitro metabolic stability studies in liver microsome and hepatocyte. The observed rate constant (kobs) for the metabolism of substrates was calculated by plotting the natural log of percentage substrate remaining versus time of incubation with the slope being kobs. The half-life (T1/2) was calculated according to the following equation: T1/2=0.693/kobs

[2] = tested on: A549 (lung); experiment: Cancer Cell Proliferation Assay (acid phosphatase, 72 hrs); type: cell-based; conditions: Homo sapiens
Experimental: (§1) Measurement of the inhibitive effect of compounds on cancer cell proliferation was performed. Various cell lines were tested, including HCT-116 (colon); A549 (lung); TOV-21G (ovarian); Calu-6 (lung); H1703 (Lung); LS-174T (colon); and SKOV3 (ovarian). The assays were performed under the following conditions: Cells are harvested at a concentration of 4×10^4 cells/ml in media. Volumes of 100 μl/well of these cell suspensions were added to a 96 well plate using a multichannel pipette. Plates were gently agitated to ensure an even dispersion of cells over a given plate. Cells were then incubated at 37° C., 5% CO^2 overnight. Following this, 100 μl of compound at varying concentrations was added to wells in triplicate. Control wells are those with 100 μl media containing 0.33% DMSO added to cell suspension (this is the equivalent volume of DMSO found in the highest concentration of drug). Plates were then gently agitated, as above, and incubated at 37° C., 5% CO2 for 72 hrs (control wells have reached 80-90% confluency). Assessment of cell proliferation in the presence of the compound was determined by the acid phosphatase assay.
(§2) Following the incubation period of 72 hrs, media was removed from the plates. Each well on the plate was washed twice with 100 μl PBS. This was then removed and 100 μl of freshly prepared phosphatase substrate (10 mM p-nitrophenol phosphate in 0.1M sodium acetate, 0.1% triton X-100, pH 5.5) was added to each well. The plates were then incubated in the dark at 37° C. for 2 hours. Colour development was monitored during this time. The enzymatic reaction was stopped by the addition of 50 μl of 1N NaOH. The plate was read in a dual beam plate reader at 405 nm with a reference wavelength of 620 nm. The absorbance reading of the latter is subtracted from the former, and the effect of the drug on cell proliferation was then measured as a percentage against the control cells (DMSO), which is taken as 0% inhibition. […] FIG. 14 A-K also show the % inhibition curves of various compounds on these cancer cell lines with the 72 hrs proliferation assay.

[3] = tested on: TOV-21G (ovarian); experiment: as above; type: cell-based; conditions: Homo sapiens, TOV21G, read-out: IC50 on cancer cell line proliferation, TOV-21G
Experimental: as §1, §2

[4] = tested on: LS-174T (colon); experiment: as above; type: cell-based; conditions: Homo sapiens, LS174T, read-out: IC50 on cancer cell line proliferation, LS-174T
Experimental: as §1, §2

[5] = tested on: SKOV3 (ovarian); experiment: as above; type: cell-based; conditions: Homo sapiens, SK-OV-3, read-out: IC50 on cancer cell line proliferation, SKOV3
Experimental: as §1, §2

[6] = tested on: HCT-116 (colon); experiment: as above; type: cell-based; conditions: Homo sapiens, read-out: IC50 on cancer cell line proliferation, HCT-116
Experimental: as §1, §2

[7] = tested on: H1703 (Lung); experiment: as above; type: cell-based; conditions: Homo sapiens, NCI-H1703, read-out: IC50 on cancer cell line proliferation, H1703
Experimental: as §1, §2

[8] = tested on: Calu-6 (lung); experiment: as above; type: cell-based; conditions: Homo sapiens, read-out: IC50 on cancer cell line proliferation, Calu6
Experimental: as §1, §2

[9] = read-out: IC50 on cancer cell line proliferation, A549

| Compound | half-life at 1 μM [1] [min] | IC50 [2, 9] [nM] | IC50 [3] [nM] | IC50 [4] [nM] | IC50 [5] [nM] | IC50 [6] [nM] | IC50 [7] [nM] | In vitro RLM ([1]; as repeated in the PK tables) [min] | In vitro RLM (min) ([1]; as repeated in the PK tables) | IC50 [8] [nM] | IC50 ([2]; A549, 72 h, heading: IC50 on cancer cell line proliferation) [nM] |
| --- | --- | --- | --- | --- | --- | --- | --- | --- | --- | --- | --- |
| O=C(Nc1nc(NC(=O)c2cc3ccccc3s2)n(-c2ccccc2)n1)c1ccccc1 [Compound A2] | 36 | – | – | – | – | – | – | – | – | – | – |
| O=C(Nc1nc(NC(=O)c2ccccc2)n(-c2ccccc2)n1)c1ccccc1 [Compound A, N,N′-(1-phenyl-1H-1,2,4-triazole-3,5-diyl)dibenzamide] | 20.6 | – | – | – | – | – | – | – | – | – | – |
| O=C(Nc1nc(NC(=O)c2ccc3ccccc3n2)n(-c2ccccc2)n1)c1ccccc1 [Compound B2] | 2 | – | – | – | – | – | – | – | – | – | – |
| Cc1ccccc1C(=O)Nc1nc(NC(=O)/C=C/c2ccccc2)n(-c2ccccc2)n1 [Compound C2] | 12 | – | – | – | – | – | – | – | – | – | – |
| O=C(/C=C/c1ccccc1)Nc1nc(NC(=O)c2ccccc2)nn1-c1ccccc1 [Compound C, N-(5-cinnamamido-1-phenyl-1H-1,2,4-triazol-3-yl)benzamide] | 14.1 | 2260 | 1740 | 2200 | 3160 | 1670 | 2590 | 14.1 | – | – | – |
| O=C(Nc1nc(NC(=O)c2ccccc2)n(-c2ccc3c(c2)OCCO3)n1)c1ccccc1 [Compound E2] | 3 | – | – | – | – | – | – | – | – | – | – |
| Cc1ccccc1C(=O)Nc1nc(NC(=O)c2ccccc2C)n(-c2ccccc2)n1 [Compound F, 2-methyl-N-[5-[(2-methylbenzoyl)amino]-1-phenyl-1,2,4-triazol-3-yl]benzamide] | 630 | 2650 | 2220 | 2670 | 3300 | 2280 | – | – | Stable | – | – |
| O=C(Nc1nc(NC(=O)c2cccs2)nn1-c1ccccc1)c1ccccc1 [Compound G2] | 39 | – | – | – | – | – | – | – | – | – | – |
| Cc1ccccc1C(=O)Nc1nc(-c2ccccn2)nn1-c1ccc(OC(F)(F)F)cc1 [Compound H3] | 16 | 823 | 751 | 497 | 737 | 485 | 3040 | – | – | 2410 | – |
| O=C(Nc1nc(NC(=O)c2ccccc2)n(-c2ccc3ncccc3c2)n1)c1ccccc1 [Compound J2] | 50 | – | – | – | – | – | – | – | – | – | – |
| Cc1ccccc1C(=O)Nc1nc(NC(=O)c2cccs2)nn1-c1ccccc1 [Compound K2] | 29 | – | – | – | – | – | – | – | – | – | – |
| Cc1ccccc1C(=O)Nc1nc(NC(=O)c2ccccc2)nn1-c1ccccc1 [Compound K, N-(5-benzamido-2-phenyl-1,2,4-triazol-3-yl)-2-methyl-benzamide] | – | 2530 | 1350 | 3110 | 3140 | 1920 | 3460 | – | – | – | – |
| O=C(Nc1nc(Nc2ncnc3ccccc23)n(-c2ccccc2)n1)c1ccccc1 [Compound L, N-[1-phenyl-5-(quinazolin-4-ylamino)-1,2,4-triazol-3-yl]benzamide] | 59.2 | – | 989 | 1520 | 1230 | 939 | – | – | – | 2270 | 1550 |
| Cc1ccccc1C(=O)Nc1nc(-c2ccccn2)nn1-c1ccccc1 [Compound Q2] | 76 | 2160 | 1600 | 2290 | 2080 | 1640 | ~2530 | – | – | – | – |
| Cc1ccccc1C(=O)Nc1nc(NC(=O)c2ccccc2C)n(-c2ccc(Cl)cc2)n1 [Compound Q3] | 133 | 613 | 688 | 1730 | 2060 | 294 | 1540 | – | – | 194 | – |
| Cc1ccccc1C(=O)Nc1nc(Nc2ncnc3ccccc23)n(-c2ccccc2)n1 [Compound R2] | 77 | – | – | – | – | – | – | – | – | – | – |
| Cc1ccc(-c2nc(NC(=O)c3ccccc3C)n(-c3ccccc3)n2)nc1 [Compound R3, 2-methyl-N-(3-(5-methylpyridin-2-yl)-1-phenyl-1H-1,2,4-triazol-5-yl)benzamide] | – | 1980 | 1190 | 1690 | 2710 | 1300 | 2620 | – | – | 3370 | – |
| Cc1ccccc1C(=O)Nc1nc(-c2ncccc2C)nn1-c1ccccc1 [Compound S3, 2-methyl-N-(3-(3-methylpyridin-2-yl)-1-phenyl-1H-1,2,4-triazol-5-yl)benzamide] | – | 878 | 566 | 522 | 650 | 482 | 2710 | – | – | 2360 | – |
| O=C(/C=C/c1ccccc1)Nc1nc(NC(=O)c2ccccc2)nn1-c1ccccn1 [Compound U1] | 10.5 | – | – | – | – | – | – | – | – | – | – |
| c1ccc(-n2nc(-c3ccccn3)nc2Nc2ncnc3ccccc23)cc1 [Compound U2] | 126 | – | – | – | – | – | – | – | – | – | – |
| O=C(Nc1nc(NC(=O)c2ccco2)n(-c2ccccc2)n1)c1ccccc1 [Compound W1] | 110 | – | – | – | – | – | – | – | – | – | – |
| O=C(Nc1nc(-c2ccccn2)nn1-c1ccccc1)c1ccccc1 [Compound Y1, N-(1-phenyl-3-(pyridin-2-yl)-1H-1,2,4-triazol-5-yl)benzamide] | < 1 | 893 | 495 | 938 | 1180 | 351 | 4700 | – | – | 3340 | – |
| O=C(Nc1nc(NC(=O)c2ccccc2)n(-c2ccc(OC(F)(F)F)cc2)n1)c1ccccc1 [Compound Z1] | 19 | 253 | 210 | 391 | 606 | 132 | 481 | – | – | 1060 | – |
| O=C(Nc1nc(Nc2ncnc3ccccc23)n(-c2ccccc2)n1)c1ccco1 [Z] | 45 | – | – | – | – | – | – | – | – | – | – |
